The source of these data is patent US12186327B2, “Oral allopregnanolone compositions and methods of use” (Lipocine Inc., priority 2022, dated 2025).

≈ marks a conversion by molar mass, not a printed value. Where two headings read alike, the source gives them in different places.

For data set [1] the following is noted: oral daily doses of 16-24 g for 14 days, human volunteers; cited from earlier work.
The target of a further data set is a1b2g2 GABAA receptor (Homo sapiens, UniProt P14867+P47870). The note with it: synaptic GABAA receptor; cited from earlier work.
a1b2g2 GABAA receptor, sequence (P14867 28-456): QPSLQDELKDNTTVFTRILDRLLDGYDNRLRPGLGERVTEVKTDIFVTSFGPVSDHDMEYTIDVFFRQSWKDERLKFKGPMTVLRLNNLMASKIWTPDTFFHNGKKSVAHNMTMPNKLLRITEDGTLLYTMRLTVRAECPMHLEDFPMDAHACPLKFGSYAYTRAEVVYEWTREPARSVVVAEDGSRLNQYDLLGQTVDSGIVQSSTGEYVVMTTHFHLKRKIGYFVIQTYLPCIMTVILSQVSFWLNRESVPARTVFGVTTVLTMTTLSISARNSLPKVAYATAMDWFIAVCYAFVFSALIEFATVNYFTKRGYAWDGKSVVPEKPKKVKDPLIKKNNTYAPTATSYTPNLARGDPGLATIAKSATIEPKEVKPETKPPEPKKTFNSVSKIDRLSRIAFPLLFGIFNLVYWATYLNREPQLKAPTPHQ
a1b2g2 GABAA receptor, sequence (P47870 25-512 limits assumed): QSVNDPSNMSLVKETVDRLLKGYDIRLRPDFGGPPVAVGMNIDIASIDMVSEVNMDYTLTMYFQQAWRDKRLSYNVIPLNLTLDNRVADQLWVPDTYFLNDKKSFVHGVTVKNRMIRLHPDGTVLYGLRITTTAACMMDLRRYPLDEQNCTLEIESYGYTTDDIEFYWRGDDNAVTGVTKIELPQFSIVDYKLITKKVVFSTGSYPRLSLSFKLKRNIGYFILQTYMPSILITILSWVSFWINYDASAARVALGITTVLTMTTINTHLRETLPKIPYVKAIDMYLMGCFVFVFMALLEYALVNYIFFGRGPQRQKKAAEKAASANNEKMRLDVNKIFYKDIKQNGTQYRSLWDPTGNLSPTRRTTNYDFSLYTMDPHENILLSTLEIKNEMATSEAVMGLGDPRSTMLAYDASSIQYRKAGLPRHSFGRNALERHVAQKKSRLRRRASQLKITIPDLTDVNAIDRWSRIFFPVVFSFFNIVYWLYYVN
a1b2g2 GABAA receptor, sequence (P18507 40-475 partner): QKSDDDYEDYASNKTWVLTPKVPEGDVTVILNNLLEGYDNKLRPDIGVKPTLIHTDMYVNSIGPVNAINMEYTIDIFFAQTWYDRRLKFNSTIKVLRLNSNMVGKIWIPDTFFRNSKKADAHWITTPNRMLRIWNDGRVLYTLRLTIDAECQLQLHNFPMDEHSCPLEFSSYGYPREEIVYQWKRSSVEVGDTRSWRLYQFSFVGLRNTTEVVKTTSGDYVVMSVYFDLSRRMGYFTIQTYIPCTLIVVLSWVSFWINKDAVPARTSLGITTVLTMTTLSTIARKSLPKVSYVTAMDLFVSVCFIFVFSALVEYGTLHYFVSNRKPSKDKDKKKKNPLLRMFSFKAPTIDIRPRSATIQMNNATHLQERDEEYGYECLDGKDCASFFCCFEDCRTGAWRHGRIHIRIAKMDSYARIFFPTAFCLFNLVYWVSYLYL
For data set [2] the following is noted: once daily 30 mg capsule, 14 day treatment; cited from earlier work.
For data set [3] the following is noted: 30 mg capsule, cited from earlier work.
Data set [4] is described as follows: Allopregnanolone solubility in SBE-β-CD solution. The class given is physicochemical. The note with it: for solubility: aqueous with cosolvent or surfactant or cyclodextrin. As to the method: The solubilized fraction of allopregnanolone began to decline, as observed by precipitation, when allopregnanolone concentration was above 8 mg/ml. The amount of allopregnanolone in the cyclodextrin solution can only be enabled by up to about 0.6% w/w loading amount of the composition fill. Moreover, high cyclodextrin amounts required to solubilize allopregnanolone also present safety concerns. In some aspects, the compositions and dosage forms of this invention can comprise higher allopregnanolone loading amounts (>5 mg/ml or 5 mg/g) than ones formulated in non-encapsulated SBE-β-CD or any cyclodextrin solution composition.

The conditions of data set [5]: in vivo; cited from earlier work.

As to hydroxy propyl-β-CD, the digestive problems result in data set [1] was “increased incidence of soft stools and diarrhea”.

With `C[C@@]1(O)CC[C@H]2[C@H](CC[C@@H]3[C@@H]2CC[C@]2(C)[C@@H](C(=O)Cn4cc(C#N)cn4)CC[C@@H]32)C1` [ZURANOLONE], the “less potent than allopregnanolone, based on a1b2g2 Qpatch EC50” value at a1b2g2 GABAA receptor is on record as “about 33%”. Also, the “efficacy in postpartum depression” value in data set [2] is “acceptable efficacy”. The Cmax entry is “about 64 ng/ml” in data set [3] (single dose with a standard fat meal) and “about 23 ng/ml” in data set [3] (single dose, fasted condition).

In the case of `CC(=O)[C@H]1CC[C@H]2[C@@H]3CC[C@H]4C[C@H](O)CC[C@]4(C)[C@H]3CC[C@]12C` [allopregnanolone, 3α-hydroxy-5α-pregnan-20-one], the solubility was more than 8000 µg/mL in data set [4] (cyclodextrin (SBE-β-CD) solution, read-out: allopregnanolone concentration above which the solubilized fraction declined (precipitation)) and approximately 6000 µg/mL (≈ 18.8 mM) in data set [4] (in 24% w/v non-encapsulated SBE-β-CD solution, read-out: allopregnanolone solubility). Further, in data set [4] (cyclodextrin solution), the “loading amount of the composition fill enabled in cyclodextrin solution” value is reported as “up to 0.6 % w/w”. The oral bioavailability entry in data set [5] is “low”.
